Assay results reported in patent publication US11999739B2, “Antimicrobials methods of making and using the same” (BIOVERSYS AG, priority 2016, dated 2024).

Key:
[1] = tested on: Escherichia coli strain ATCC25922; assay: Standard microdilution MIC assay, E. coli; assay type: cell-based
Description: (§1) The in vitro activity of the compounds of the present disclosure can be determined. Antimicrobial testing is typically performed to determine the minimum inhibitory concentration (MIC). Minimum inhibitory concentrations (MICs) are determined by the microdilution method in a final volume of 100 μl according to protocols outlined by The Clinical and Laboratory Standards Institute (CLSI). Performance standards for reference strains are assessed within the same experimental design to maintain quality control. See, for example, Clinical Laboratory Standards Institute: Methods for dilution antimicrobial susceptibility tests for bacteria that grow aerobically M7-A8. Approved Standard-Eighth Edition. Wayne, PA: CLSI; December 2008; and Clinical Laboratory Standards Institute: Performance Standards for Antimicrobial Susceptibility Testing M100-S20; Approved Standard-Twentieth Edition. Wayne, PA: CLSI; June 2010.
(§2) The compounds of the present disclosure were tested for antimicrobial activity. The Compounds 1-293 were run against Escherichia coli (E co/i) strain ATCC25922 and against Staphylococcus aureus (S. aureus) 11540 strain using a standard microdilution assay to determine minimum inhibitory concentrations (MICs). […] It will be recognized by one skilled in the art that the compounds can be assessed against other bacterial organisms and that the presentation of data for activity against Escherichia coli and Staphylococcus aureus are illustrative and in no way is intended to limit the scope of the present disclosure. The compounds of the present disclosure can be assayed against a range of other microorganisms depending upon the performance activity desired to be gathered. Furthermore, the “+” and “−” representation and the selection of a cutoff value of 16 micrograms/mL is also illustrative and in no way is intended to limit the scope of the present disclosure.

[2] = tested on: Staphylococcus aureus (S. aureus) 11540 strain; assay: Standard microdilution MIC assay, S. aureus; assay type: cell-based
Description: as §1, §2

Compound | MIC [1] | MIC [2]
C=C[C@H](N)CCCc1cc(Cl)c(F)c(-c2cc3cn(-c4ccc([C@@H]5COC[C@@H](CCNC(=N)CF)N5)cc4)c(=O)nc3[nH]2)c1 [Compound 81] | ≤ 16 µg/mL | ≤ 16 µg/mL
CC(=N)NCCCN[C@@H](C)c1ccc(-n2cc3cc(-c4cc(CCC[C@@H](N)CO)cc(Cl)c4F)[nH]c3nc2=O)cc1F [Compound 113] | ≤ 16 µg/mL | ≤ 16 µg/mL
C=C[C@@H](CCNC(=N)CCO)NCc1ccc(-n2cc3cc(-c4cc(CCC[C@H](C)N)cc(Cl)c4F)[nH]c3nc2=O)cc1 [Compound 15] | ≤ 16 µg/mL | ≤ 16 µg/mL
COC[C@H](N)CCCc1cc(-c2cc3cn(-c4ccc(CN[C@H](CCNC(C)=N)C5CC5)cc4)c(=O)nc3[nH]2)cc(C(F)(F)F)c1 [Compound 222] | ≤ 16 µg/mL | ≤ 16 µg/mL
C=CCN(CC[C@@H]1CCC[C@@H](c2ccc(-n3cc4cc(-c5cc(CCC[C@@H](N)CF)cc(Cl)c5F)[nH]c4nc3=O)cc2)N1C)C(C)=N [Compound 181] | ≤ 16 µg/mL | ≤ 16 µg/mL
C=C[C@@H](CCNC(C)=N)NCc1ccc(-n2cc3cc(-c4cc(CCC[C@@H](N)C(F)F)cc(Cl)c4F)[nH]c3nc2=O)cc1 [Compound 140] | ≤ 16 µg/mL | ≤ 16 µg/mL
CCCC(=N)NCC[C@@H]1CCC[C@@H](c2ccc(-n3cc4cc(-c5cc(CCC[C@H](C)N)cc(Cl)c5F)[nH]c4nc3=O)cc2)N1 [Compound 352] | ≤ 16 µg/mL | ≤ 16 µg/mL
CC(=N)NCC[C@@H]1COC[C@@H](c2ccc(-n3cc4cc(-c5cc(CCCC(C)(C)N)cc(Cl)c5F)[nH]c4nc3=O)cc2)N1 [Compound 68] | ≤ 16 µg/mL | ≤ 16 µg/mL
C=C[C@@H](CCNC(C)=N)NCc1ccc(-n2cc3cc(-c4cc(CCC[C@@H](N)C5CC5)cc(Cl)c4F)[nH]c3nc2=O)cc1 [Compound 87] | ≤ 16 µg/mL | ≤ 16 µg/mL
C[C@H](N)CCCc1cc(Cl)c(F)c(-c2cc3cn(-c4ccc(CNCCCNC(=N)CF)c(F)c4)c(=O)nc3[nH]2)c1 [Compound 77] | ≤ 16 µg/mL | ≤ 16 µg/mL
C=C[C@H](N)CCCc1cc(-c2cc3cn(-c4cc(F)c([C@@H]5CCC[C@@H](CCNC(C)=N)N5CCCF)c(SC)c4)c(=O)nc3[nH]2)cc(C(F)(F)F)c1 [Compound 351] | ≤ 16 µg/mL | ≤ 16 µg/mL
CC(=N)NCC[C@@H]1CCC[C@@H](c2ccc(-n3cc4cc(-c5cc(CCC[C@@H](N)CO)cc(Cl)c5F)[nH]c4nc3=O)cc2)N1C [Compound 121] | ≤ 16 µg/mL | ≤ 16 µg/mL
C=CC(CCNC(=N)CCOCC)NCc1ccc(-n2cc3cc(-c4cc(CCC[C@H](C)N)cc(Cl)c4F)[nH]c3nc2=O)cc1 (stereo partly shown) [Compound 10] | ≤ 16 µg/mL | ≤ 16 µg/mL
CSc1cc(-n2cc3cc(-c4cc(CCC[C@@H](N)C5CC5)cc(C(F)(F)F)c4)[nH]c3nc2=O)cc(F)c1[C@@H]1CCC[C@@H](CCNC(C)=N)N1CCCF [Compound 337] | ≤ 16 µg/mL | ≤ 16 µg/mL
CC(=N)NCCCNCc1ccc(-n2cc3cc(-c4cc(CCCC(C)(C)N)cc(Cl)c4F)[nH]c3nc2=O)cc1F [Compound 65] | ≤ 16 µg/mL | ≤ 16 µg/mL
CC(=N)NCCCNC1(c2ccc(-n3cc4cc(-c5cc(CCC[C@@H](N)C6CC6)cc(Cl)c5F)[nH]c4nc3=O)cc2)CC1 [Compound 143] | ≤ 16 µg/mL | ≤ 16 µg/mL
COCC(=N)NCC[C@@H]1CCC[C@@H](c2ccc(-n3cc4cc(-c5cc(CCC[C@H](C)N)cc(Cl)c5F)[nH]c4nc3=O)cc2)N1 [Compound 356] | ≤ 16 µg/mL | ≤ 16 µg/mL
CSC[C@@H](CCNC(C)=N)NCc1ccc(-n2cc3cc(-c4cc(CCC[C@H](C)N)cc(Cl)c4F)[nH]c3nc2=O)cc1 [Compound 95] | ≤ 16 µg/mL | ≤ 16 µg/mL
CSC[C@H](N)CCCc1cc(Cl)c(F)c(-c2cc3cn(-c4ccc([C@@H]5CCC[C@@H](CCNC(C)=N)N5)cc4)c(=O)nc3[nH]2)c1 [Compound 276] | ≤ 16 µg/mL | ≤ 16 µg/mL
C=C[C@@H](CCNC(C)=N)NCc1ccc(-n2cc3cc(-c4cc(CCC[C@@H](N)COC)cc(Cl)c4F)[nH]c3nc2=O)cc1 [Compound 187] | ≤ 16 µg/mL | ≤ 16 µg/mL
CC(=N)NCCCN[C@@H](CO)c1ccc(-n2cc3cc(-c4cc(CCC[C@@H](N)C5CC5)cc(Cl)c4F)[nH]c3nc2=O)cc1 [Compound 134] | ≤ 16 µg/mL | ≤ 16 µg/mL

Now from value to molecule:

MIC [1] | MIC [2] | Compound
≤ 16 µg/mL | ≤ 16 µg/mL | C=C[C@H](N)CCCc1cc(Cl)c(F)c(-c2cc3cn(-c4cc(F)c([C@@H]5CCC[C@@H](CCNC(C)=N)N5)c(OC)c4)c(=O)nc3[nH]2)c1 [Compound 320]
≤ 16 µg/mL | ≤ 16 µg/mL | CC(=N)NCC[C@@H]1CCC[C@@H](c2ccc(-n3cc4cc(-c5cc(CCC[C@@H](N)CF)cc(C(F)(F)F)c5)[nH]c4nc3=O)cc2F)N1 [Compound 205]
≤ 16 µg/mL | ≤ 16 µg/mL | COc1cc(-n2cc3cc(-c4cc(CCC[C@@H](N)C5CC5)cc(C(F)(F)F)c4F)[nH]c3nc2=O)ccc1[C@@H]1CCC[C@@H](CCNC(C)=N)N1 [Compound 235]
≤ 16 µg/mL | ≤ 16 µg/mL | C=C[C@H](N)CCCc1cc(Cl)c(F)c(-c2cc3cn(-c4ccc([C@@H]5CCC[C@@H](CCNC(C)=N)N5)c(OC)c4)c(=O)nc3[nH]2)c1 [Compound 244]
≤ 16 µg/mL | ≤ 16 µg/mL | CSc1cc(-n2cc3cc(-c4cc(CCC[C@@H](N)C5CC5)cc(C(F)(F)F)c4)[nH]c3nc2=O)ccc1[C@@H]1CCC[C@@H](CCNC(C)=N)N1 [Compound 250]
≤ 16 µg/mL | ≤ 16 µg/mL | COc1cc(-n2cc3cc(-c4cc(CCC[C@@H](N)CF)cc(C(F)(F)F)c4)[nH]c3nc2=O)ccc1[C@@H]1CCC[C@@H](CCNC(C)=N)N1 [Compound 209]
≤ 16 µg/mL | ≤ 16 µg/mL | CC(=N)NCC[C@@H]1CCC[C@@H](c2ccc(-n3cc4cc(-c5cc(CCC[C@@H](N)CF)cc(C(F)(F)F)c5F)[nH]c4nc3=O)cc2)N1 [Compound 193]
≤ 16 µg/mL | ≤ 16 µg/mL | CC(=N)NCC[C@@H]1CCC[C@@H](c2ccc(-n3cc4cc(-c5cc(CCC[C@@H](N)C6CC6)cc(C(F)(F)F)c5F)[nH]c4nc3=O)cc2)N1 [Compound 212]
≤ 16 µg/mL | ≤ 16 µg/mL | CC(=N)NCC[C@@H]1CCC[C@@H](c2ccc(-n3cc4cc(-c5cc(CCC[C@@H](N)CO)cc(Cl)c5F)[nH]c4nc3=O)cc2S(C)(=O)=O)N1 [Compound 118]
≤ 16 µg/mL | ≤ 16 µg/mL | COC[C@H](N)CCCc1cc(OC(F)(F)F)c(F)c(-c2cc3cn(-c4cc(F)c([C@@H]5CCC[C@@H](CCNC(C)=N)N5)c(SC)c4)c(=O)nc3[nH]2)c1 [Compound 241]
≤ 16 µg/mL | ≤ 16 µg/mL | CC(=N)NCC[C@@H]1CCC[C@@H](c2ccc(-n3cc4cc(-c5cc(CCC[C@@H](N)C6CC6)cc(Cl)c5F)[nH]c4nc3=O)cc2F)N1 [Compound 167]
≤ 16 µg/mL | ≤ 16 µg/mL | CC(=N)NCC[C@@H]1CCC[C@@H](c2ccc(-n3cc4cc(-c5cc(CCC[C@@H](N)C6CC6)cc(C(F)(F)F)c5)[nH]c4nc3=O)cc2)N1 [Compound 206]
≤ 16 µg/mL | ≤ 16 µg/mL | COC[C@H](N)CCCc1cc(-c2cc3cn(-c4ccc([C@@H]5CCC[C@@H](CCNC(C)=N)N5)c(F)c4)c(=O)nc3[nH]2)cc(C(F)(F)F)c1 [Compound 201]
≤ 16 µg/mL | ≤ 16 µg/mL | CSc1cc(-n2cc3cc(-c4cc(CCC[C@@H](N)CF)cc(Cl)c4F)[nH]c3nc2=O)ccc1[C@@H]1CCC[C@@H](CCNC(C)=N)N1 [Compound 126]
